Data as given in ChEMBL document CHEMBL1201862, “PubChem BioAssay data set” (2004).
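Dose response: 5 concentrations. Exposure: 48 h. Format: 96-well plates. Endpoint: linear interpolation; highest concentration if not reached. GI50 is the concentration that inhibits growth by half.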 Calls of active or inactive are those of the source. No stated cut-off is given here; in the data, active = GI50 up to about 1.1 µM and inactive = higher.

Key:
Assay in all cases: growth of human tumour cells (NCI), 48 h
NCI-H23 = tested on: NCI-H23
SW-620 = tested on: SW-620
IGROV-1 = tested on: IGROV-1
Malme-3M = tested on: Malme-3M
NCI-H460 = tested on: NCI-H460
SNB-19 = tested on: SNB-19
DMS-114 = tested on: DMS-114
UACC-257 = tested on: UACC-257
A498 = tested on: A498
SK-MEL-2 = tested on: SK-MEL-2
XF498 = tested on: XF498
RXF 393 = tested on: RXF 393
OVCAR-8 = tested on: OVCAR-8
LOX IMVI = tested on: LOX IMVI
CCRF-CEM = tested on: CCRF-CEM
HL-60 = tested on: HL-60
MOLT-4 = tested on: MOLT-4
OVCAR-4 = tested on: OVCAR-4
NCI-H522 = tested on: NCI-H522
UO-31 = tested on: UO-31
EKVX = tested on: EKVX
U-251 = tested on: U-251
786-0 = tested on: 786-0
DMS-273 = tested on: DMS-273
SF-295 = tested on: SF-295
UACC-62 = tested on: UACC-62
DLD-1 = tested on: DLD-1
SK-MEL-5 = tested on: SK-MEL-5
SK-MEL-28 = tested on: SK-MEL-28
HOP-62 = tested on: HOP-62
M14 = tested on: M14
HOP-18 = tested on: HOP-18
NCI-H226 = tested on: NCI-H226
HCT-116 = tested on: HCT-116
HCT-15 = tested on: HCT-15
KM-20L2 = tested on: KM-20L2
SNB-75 = tested on: SNB-75
HT-29 = tested on: HT-29
TK-10 = tested on: TK-10
ACHN = tested on: ACHN
SNB-78 = tested on: SNB-78
SF-268 = tested on: SF-268
OVCAR-3 = tested on: OVCAR-3
SN12C = tested on: SN12C
K562 = tested on: K562
LXFL 529 = tested on: LXFL 529
HOP-92 = tested on: HOP-92
A549 = tested on: A549
SR = tested on: SR
RPMI-8226 = tested on: RPMI-8226
SK-OV-3 = tested on: SK-OV-3
OVCAR-5 = tested on: OVCAR-5
M19-MEL = tested on: M19-MEL
HCC 2998 = tested on: HCC 2998
SF-539 = tested on: SF-539
COLO 205 = tested on: COLO 205
CAKI-1 = tested on: CAKI-1
KM12 = tested on: KM12

Cc1ccc(NC(=O)C2C3C=CC(O3)C2C(=O)O)cc1 (stereo not given)
GI50 (NCI-H23): > 100 µM (inactive)
GI50 (SW-620): 8.83 µM (inactive)
GI50 (IGROV-1): > 100 µM (inactive)
GI50 (Malme-3M): > 100 µM (inactive)
GI50 (NCI-H460): > 100 µM (inactive)
GI50 (SNB-19): > 100 µM (inactive)
GI50 (DMS-114): 66.8 µM (inactive)
GI50 (UACC-257): 87.1 µM (inactive)
GI50 (A498): > 100 µM (inactive)
GI50 (SK-MEL-2): > 100 µM (inactive)
GI50 (XF498): 71.9 µM (inactive)
GI50 (RXF 393): 23.6 µM (inactive)
GI50 (OVCAR-8): > 100 µM (inactive)
GI50 (LOX IMVI): 23.7 µM (inactive)
GI50 (CCRF-CEM): 83.9 µM (inactive)
GI50 (HL-60): 61.5 µM (inactive)
GI50 (MOLT-4): > 100 µM (inactive)
GI50 (OVCAR-4): > 100 µM (inactive)
GI50 (NCI-H522): > 100 µM (inactive)
GI50 (UO-31): > 100 µM (inactive)
GI50 (EKVX): > 100 µM (inactive)
GI50 (U-251): > 100 µM (inactive)
GI50 (786-0): 53.3 µM (inactive)
GI50 (DMS-273): > 100 µM (inactive)
GI50 (SF-295): > 100 µM (inactive)
GI50 (UACC-62): > 100 µM (inactive)
GI50 (DLD-1): > 100 µM (inactive)
GI50 (SK-MEL-5): > 100 µM (inactive)
GI50 (SK-MEL-28): > 100 µM (inactive)
GI50 (HOP-62): > 100 µM (inactive)
GI50 (M14): > 100 µM (inactive)
GI50 (HOP-18): > 100 µM (inactive)
GI50 (NCI-H226): > 100 µM (inactive)
GI50 (HCT-116): > 100 µM (inactive)
GI50 (HCT-15): > 100 µM
GI50 (KM-20L2): > 100 µM (inactive)
GI50 (SNB-75): > 100 µM (inactive)
GI50 (HT-29): 19.8 µM (inactive)
GI50 (TK-10): > 100 µM (inactive)
GI50 (ACHN): > 100 µM (inactive)
GI50 (SNB-78): > 100 µM (inactive)
GI50 (SF-268): > 100 µM (inactive)
GI50 (OVCAR-3): > 100 µM (inactive)
GI50 (SN12C): > 100 µM (inactive)
GI50 (K562): > 100 µM (inactive)
GI50 (LXFL 529): > 100 µM (inactive)
GI50 (HOP-92): > 100 µM (inactive)
GI50 (A549): > 100 µM (inactive)
GI50 (SR): > 100 µM (inactive)
GI50 (RPMI-8226): 24.3 µM (inactive)
GI50 (SK-OV-3): > 100 µM (inactive)
GI50 (OVCAR-5): > 100 µM (inactive)
GI50 (M19-MEL): > 100 µM (inactive)
GI50 (HCC 2998): > 100 µM (inactive)
GI50 (SF-539): > 100 µM (inactive)
GI50 (COLO 205): 45 µM (inactive)

N=C(NC(=S)N1CCCCC1)N1CCCCC1
GI50 (NCI-H23): > 100 µM (inactive)
GI50 (SW-620): > 100 µM (inactive)
GI50 (IGROV-1): > 100 µM (inactive)
GI50 (Malme-3M): > 100 µM (inactive)
GI50 (NCI-H460): > 100 µM (inactive)
GI50 (SNB-19): > 100 µM (inactive)
GI50 (DMS-114): > 100 µM (inactive)
GI50 (UACC-257): > 100 µM (inactive)
GI50 (A498): > 100 µM (inactive)
GI50 (SK-MEL-2): > 100 µM (inactive)
GI50 (XF498): > 100 µM (inactive)
GI50 (RXF 393): > 100 µM (inactive)
GI50 (OVCAR-8): > 100 µM (inactive)
GI50 (LOX IMVI): > 100 µM (inactive)
GI50 (CAKI-1): > 100 µM (inactive)
GI50 (CCRF-CEM): > 100 µM (inactive)
GI50 (HL-60): > 100 µM (inactive)
GI50 (MOLT-4): > 100 µM (inactive)
GI50 (OVCAR-4): > 100 µM (inactive)
GI50 (NCI-H522): > 100 µM (inactive)
GI50 (UO-31): > 100 µM (inactive)
GI50 (EKVX): > 100 µM (inactive)
GI50 (U-251): > 100 µM (inactive)
GI50 (786-0): > 100 µM (inactive)
GI50 (DMS-273): > 100 µM (inactive)
GI50 (SF-295): > 100 µM (inactive)
GI50 (UACC-62): > 100 µM (inactive)
GI50 (DLD-1): > 100 µM (inactive)
GI50 (SK-MEL-5): > 100 µM (inactive)
GI50 (SK-MEL-28): > 100 µM (inactive)
GI50 (HOP-62): > 100 µM (inactive)
GI50 (M14): > 100 µM (inactive)
GI50 (HOP-18): > 100 µM (inactive)
GI50 (NCI-H226): 5.71 µM (inactive)
GI50 (HCT-116): > 100 µM (inactive)
GI50 (KM12): > 100 µM (inactive)
GI50 (HCT-15): > 100 µM
GI50 (KM-20L2): > 100 µM (inactive)
GI50 (SNB-75): > 100 µM (inactive)
GI50 (HT-29): > 100 µM (inactive)
GI50 (TK-10): > 100 µM (inactive)
GI50 (ACHN): > 100 µM (inactive)
GI50 (SNB-78): > 100 µM (inactive)
GI50 (SF-268): > 100 µM (inactive)
GI50 (SN12C): > 100 µM (inactive)
GI50 (K562): > 100 µM (inactive)
GI50 (LXFL 529): > 100 µM (inactive)
GI50 (HOP-92): > 100 µM (inactive)
GI50 (A549): > 100 µM (inactive)
GI50 (SR): > 100 µM (inactive)
GI50 (RPMI-8226): > 100 µM (inactive)
GI50 (SK-OV-3): > 100 µM (inactive)
GI50 (OVCAR-5): > 100 µM (inactive)
GI50 (M19-MEL): > 100 µM (inactive)
GI50 (HCC 2998): > 100 µM (inactive)
GI50 (SF-539): > 100 µM (inactive)

C(=C\c1ccc2ccccc2c1Nc1ccccc1)/c1ccccc1
GI50 (NCI-H23): 19.9 µM (inactive)
GI50 (SW-620): 60.3 µM (inactive)
GI50 (IGROV-1): 31 µM (inactive)
GI50 (Malme-3M): 33.2 µM (inactive)
GI50 (NCI-H460): 27.9 µM (inactive)
GI50 (SNB-19): 28 µM (inactive)
GI50 (DMS-114): 38.8 µM (inactive)
GI50 (UACC-257): > 75 µM (inactive)
GI50 (A498): 18.3 µM (inactive)
GI50 (SK-MEL-2): > 60.5 µM (inactive)
GI50 (XF498): 18.4 µM (inactive)
GI50 (RXF 393): 8.22 µM (inactive)
GI50 (OVCAR-8): 22 µM (inactive)
GI50 (LOX IMVI): > 66.4 µM (inactive)
GI50 (CAKI-1): 23.2 µM (inactive)
GI50 (CCRF-CEM): 11.9 µM (inactive)
GI50 (HL-60): > 100 µM (inactive)
GI50 (MOLT-4): 15.2 µM (inactive)
GI50 (OVCAR-4): 8.15 µM (inactive)
GI50 (NCI-H522): 41.6 µM (inactive)
GI50 (UO-31): 29.8 µM (inactive)
GI50 (EKVX): > 100 µM (inactive)
GI50 (U-251): 25.9 µM (inactive)
GI50 (786-0): 17 µM (inactive)
GI50 (DMS-273): 32.7 µM (inactive)
GI50 (SF-295): 41.9 µM (inactive)
GI50 (UACC-62): 51.9 µM (inactive)
GI50 (DLD-1): 17.3 µM (inactive)
GI50 (SK-MEL-5): 78.3 µM (inactive)
GI50 (SK-MEL-28): 46 µM (inactive)
GI50 (HOP-62): 20.1 µM (inactive)
GI50 (M14): 18.7 µM (inactive)
GI50 (HOP-18): 26.4 µM (inactive)
GI50 (NCI-H226): 33.2 µM (inactive)
GI50 (HCT-116): 17.8 µM (inactive)
GI50 (KM12): 51.3 µM (inactive)
GI50 (HCT-15): > 100 µM
GI50 (KM-20L2): 45.1 µM (inactive)
GI50 (SNB-75): 15.7 µM (inactive)
GI50 (HT-29): 29.6 µM (inactive)
GI50 (TK-10): 44.5 µM (inactive)
GI50 (ACHN): 20.6 µM (inactive)
GI50 (SNB-78): 38.6 µM (inactive)
GI50 (SF-268): 36.2 µM (inactive)
GI50 (OVCAR-3): 22.4 µM (inactive)
GI50 (SN12C): 33.6 µM (inactive)
GI50 (K562): 11.9 µM (inactive)
GI50 (LXFL 529): > 73.1 µM (inactive)
GI50 (HOP-92): 18.2 µM (inactive)
GI50 (A549): 49.3 µM (inactive)
GI50 (SR): 15.2 µM (inactive)
GI50 (RPMI-8226): 25.1 µM (inactive)
GI50 (SK-OV-3): 29.8 µM (inactive)
GI50 (OVCAR-5): > 100 µM (inactive)
GI50 (M19-MEL): > 92.7 µM (inactive)
GI50 (HCC 2998): > 70.5 µM (inactive)
GI50 (SF-539): 32.2 µM (inactive)
GI50 (COLO 205): > 71.3 µM (inactive)
